The source of these data is patent US9957265B2, “N-(2-cyano heterocyclyl) pyrazolo pyridones as janus kinase inhibitors” (Merck Sharp & Dohme Corp., priority 2013, dated 2018).

Each structure is given as a SMILES string. Where two headings read alike, the source gives them in different places.

The target in one experiment is JAK1 (Homo sapiens (Human), UniProt P23458). The experiment can be described thus: Jak Biochemical HTRF Assay (JAK1). Conditions: recombinant GST-tagged catalytic domain, [ATP] 31.8 μM, unit not given (compound concentrations tested given in nM). The text has this: Jak Biochemical HTRF Assay Protocol
Subsequent reagent additions employed an Agilent Bravo.
(In general: In TR-FRET formats the signal depends on donor and acceptor labels being close together.)

The target of another experiment is JAK2 (Homo sapiens (Human), UniProt O60674). The experiment can be described thus: Jak Biochemical HTRF Assay (JAK2).
[1] abbreviates: JAK2 IC50, recombinant GST-tagged catalytic domain, [ATP] 8.5 μM, unit not given (compound concentrations tested given in nM).
Where [2] appears, read: read-out: JAK2 IC50, recombinant GST-tagged catalytic domain, [ATP] 8.5 μM, unit not given (compound concentrations tested given in nM).

Chain of JAK2 (O60674 849-1124): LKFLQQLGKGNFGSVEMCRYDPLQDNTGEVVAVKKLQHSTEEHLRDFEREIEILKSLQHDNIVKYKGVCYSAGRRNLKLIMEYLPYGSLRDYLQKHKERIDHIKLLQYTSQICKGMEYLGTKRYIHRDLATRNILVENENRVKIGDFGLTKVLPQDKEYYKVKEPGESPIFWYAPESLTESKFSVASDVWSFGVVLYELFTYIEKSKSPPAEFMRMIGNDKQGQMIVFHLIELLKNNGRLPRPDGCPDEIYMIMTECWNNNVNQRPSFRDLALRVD
Chain of JAK1 (P23458 875-1153): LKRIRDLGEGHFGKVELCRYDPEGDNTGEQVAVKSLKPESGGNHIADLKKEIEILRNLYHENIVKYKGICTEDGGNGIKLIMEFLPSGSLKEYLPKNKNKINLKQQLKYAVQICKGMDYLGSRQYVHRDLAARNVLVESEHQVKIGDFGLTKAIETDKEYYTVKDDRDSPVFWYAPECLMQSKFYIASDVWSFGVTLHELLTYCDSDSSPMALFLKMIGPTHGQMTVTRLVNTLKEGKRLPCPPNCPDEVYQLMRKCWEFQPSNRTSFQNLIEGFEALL

`N#C[C@H]1CCOCC1n1nc(Nc2ccc(C(O)(c3ccncc3)C(F)(F)F)cc2)c2c(=O)[nH]ccc21` (single isomer, unassigned) [Example 1-94, (3R,4S)-3-(4-oxo-3-((4-((S or R)-2,2,2-trifluoro-1-hydroxy-1-(pyridin-4-yl)ethyl)phenyl)amino)-4,5-dihydro-1H-pyrazolo[4,3-c]pyridin-1-yl)tetrahydro-2H-pyran-4-carbonitrile]: the IC50 on JAK1 came to 0.08 nM; at JAK2 (setting [1]), 0.15 nM.
For `N#C[C@H]1CCOC[C@@H]1n1nc(Nc2ccc(S(=O)(=O)N3CCC3)cc2)c2c(=O)[nH]ccc21` [Example 1-69, (3R,4S)-3-(3-{[4-(azetidin-1-ylsulfonyl)phenyl]amino}-4-oxo-4,5-dihydro-1H-pyrazolo[4,3-c]pyridin-1-yl)tetrahydro-2H-pyran-4-carbonitrile], the IC50 amounted to 0.08 nM at JAK1 and 0.3 nM on JAK2 (setting [2]).
`CC(C)(C)OC(=O)CNC(c1ccc(Nc2nn([C@H]3COCC[C@@H]3C#N)c3cc[nH]c(=O)c23)cc1)C(F)(F)F` (single isomer, unassigned) [Example 1-40, tert-butyl N-{[(1R or 1S)-1-[4-({1-[(3R,4S)-4-cyanotetrahydro-2H-pyran-3-yl]-4-oxo-4,5-dihydro-1H-pyrazolo[4,3-c]pyridin-3-yl}amino)phenyl]-2,2,2-trifluoroethyl}glycinate]: the values for the IC50 at JAK1 and at JAK2 (setting [1]) were 0.16 nM and 0.78 nM, respectively.
On to `CC1CN(S(=O)(=O)c2ccc(Nc3nn([C@H]4COCC[C@@H]4C#N)c4cc[nH]c(=O)c34)cc2)CCO1` (single isomer, unassigned) [Example 1-74, (3R,4S)-3-{3-[(4-{[(2S or 2R)-2-methylmorpholin-4-yl]sulfonyl}phenyl)amino]-4-oxo-4,5-dihydro-1H-pyrazolo[4,3-c]pyridin-1-yl}tetrahydro-2H-pyran-4-carbonitrile], for which the IC50 on JAK1 amounted to 0.18 nM; at JAK2 (setting [1]), 0.52 nM.
As to `N#C[C@H]1CCOC[C@@H]1n1nc(Nc2ccc(C(NC3CC3)C(F)(F)F)cc2)c2c(=O)[nH]ccc21` (single isomer, unassigned) [Example 1-80, (3R,4S)-3-[3-({4-[(1S or 1R)-1-(cyclopropylamino)-2,2,2-trifluoroethyl]phenyl}amino)-4-oxo-4,5-dihydro-1H-pyrazolo[4,3-c]pyridin-1-yl]tetrahydro-2H-pyran-4-carbonitrile], the IC50 at JAK1 amounted to 0.07 nM; on JAK2 (setting [1]) it was 0.15 nM.
On to `CCC(C)(C)S(=O)(=O)c1ccc(Nc2nn([C@H]3COCC[C@@H]3C#N)c3cc[nH]c(=O)c23)cc1` [Example 1-65, (3R,4S)-3-[3-({4-[(1,1-dimethylpropyl)sulfonyl]phenyl}amino)-4-oxo-4,5-dihydro-1H-pyrazolo[4,3-c]pyridin-1-yl]tetrahydro-2H-pyran-4-carbonitrile], for which the IC50 worked out at 0.09 nM on JAK1 and 0.26 nM at JAK2 (setting [2]).
Take `CC(C)(C)S(=O)(=O)c1ccc(Nc2nn([C@@H]3COCCC[C@@H]3C#N)c3cc[nH]c(=O)c23)cc1` (single isomer, unassigned) [Example 1-25, (3S,4S or 3R,4R)-3-(3-{[4-(tert-butylsulfonyl)phenyl]amino}-4-oxo-4,5-dihydro-1H-pyrazolo[4,3-c]pyridin-1-yl)oxepane-4-carbonitrile]: the IC50 at JAK1 is 2.27 nM; at JAK2 (setting [1]) it was 3.43 nM.
As for `CC(C)(C)S(=O)(=O)c1ccc(Nc2nn([C@H]3CCOCC[C@@H]3C#N)c3cc[nH]c(=O)c23)cc1` (single isomer, unassigned) [Example 1-26, (4S,5S or 4R,5R)-5-(3-{[4-(tert-butylsulfonyl)phenyl]amino}-4-oxo-4,5-dihydro-1H-pyrazolo[4,3-c]pyridin-1-yl)oxepane-4-carbonitrile], the IC50 on JAK1 came out at 0.71 nM.
In the case of `CC1CN(S(=O)(=O)c2ccc(Nc3nn([C@H]4COCC[C@@H]4C#N)c4cc[nH]c(=O)c34)cc2)C1` [Example 1-70, (3R,4S)-3-[3-({4-[(3-methylazetidin-1-yl)sulfonyl]phenyl}amino)-4-oxo-4,5-dihydro-1H-pyrazolo[4,3-c]pyridin-1-yl]tetrahydro-2H-pyran-4-carbonitrile], at JAK1, the IC50 came to 0.15 nM.
Still for that read-out and setting: the value for `CC(C)(C)S(=O)(=O)c1ccc(Nc2nn([C@@H]3CCOCC[C@@H]3C#N)c3cc[nH]c(=O)c23)cc1` (single isomer, unassigned) [Example 1-29, (4S,5R or 4R,5S)-5-(3-{[4-(tert-butylsulfonyl)phenyl]amino}-4-oxo-4,5-dihydro-1H-pyrazolo[4,3-c]pyridin-1-yl)oxepane-4-carbonitrile] was 4.38 nM.
Same read-out and setting: the value for `CC1(C)CC2(c3ccc(Nc4nn([C@H]5COCC[C@@H]5C#N)c5cc[nH]c(=O)c45)cc3)CCC1C(=O)O2` (stereo partly drawn) [Example 1-21, (3R,4S)-3-(3-{[4-(5,5-dimethyl-3-oxo-2-oxabicyclo[2.2.2]oct-1-yl)phenyl]amino}-4-oxo-4,5-dihydro-1H-pyrazolo[4,3-c]pyridin-1-yl)tetrahydro-2H-pyran-4-carbonitrile] was 0.08 nM.
On the same count and under the same terms, the value for `N#C[C@H]1CCOCC1n1nc(Nc2ccc(C3(C(F)(F)F)CCNC3)cc2)c2c(=O)[nH]ccc21` (single isomer, unassigned) [Example 1-98, (3R,4S)-3-(4-oxo-3-((4-((S or R)-3-(trifluoromethyl)pyrrolidin-3-yl)phenyl)amino)-4,5-dihydro-1H-pyrazolo[4,3-c]pyridin-1-yl)tetrahydro-2H-pyran-4-carbonitrile] was 0.06 nM.
Take `CC(C)(C)NC(c1ccc(Nc2nn([C@H]3COCC[C@@H]3C#N)c3cc[nH]c(=O)c23)cc1)C(F)(F)F` (single isomer, unassigned) [Example 1-50, (3R,4S)-3-[3-({4-[(1R or 1S)-1-(tert-butylamino)-2,2,2-trifluoroethyl]phenyl}amino)-4-oxo-4,5-dihydro-1H-pyrazolo[4,3-c]pyridine-1-yl]tetrahydro-2H-pyran-4-carbonitrile]: the IC50 on JAK1 was found to be 0.08 nM.
`CC(C)(C)NC(c1ccc(Nc2nn([C@H]3COCC[C@@H]3C#N)c3cc[nH]c(=O)c23)cc1)C(F)(F)F` (single isomer, unassigned) [Example 1-51, (3R,4S)-3-[3-[3-({4-[(1S or 1R)-1-(tert-butylamino)-2,2,2-trifluoroethyl]phenyl}amino)-4-oxo-4,5-dihydro-1H-pyrazolo[4,3-c]pyridin-1-yl]tetrahydro-2H-pyran-4-carbonitrile]: the IC50 on JAK1 amounted to 0.08 nM.
On the same count and under the same terms, the value for `CC(C)(C)S(=O)(=O)c1ccc(Nc2nn([C@H]3CCOCC[C@H]3C#N)c3cc[nH]c(=O)c23)cc1` (single isomer, unassigned) [Example 1-28, (4R,5S or 4S,5R)-5-(3-{[4-(tert-butylsulfonyl)phenyl]amino}-4-oxo-4,5-dihydro-1H-pyrazolo[4,3-c]pyridin-1-yl)oxepane-4-carbonitrile] was 5.34 nM.
Still for that read-out and setting: the value for `CC(C)(C)S(=O)(=O)c1ccc(Nc2nn([C@@H]3CCOCC[C@H]3C#N)c3cc[nH]c(=O)c23)cc1` (single isomer, unassigned) [Example 1-27, (4R,5R or 4S,5S)-5-(3-{[4-(tert-butylsulfonyl)phenyl]amino}-4-oxo-4,5-dihydro-1H-pyrazolo[4,3-c]pyridin-1-yl)oxepane-4-carbonitrile] was 22.4 nM; that for `N#C[C@H]1CCOCC1n1nc(Nc2ccc(C3(C(F)(F)F)CCNC3)cc2)c2c(=O)[nH]ccc21` (single isomer, unassigned) [Example 1-99, (3R,4S)-3-(4-oxo-3-((4-((S or R)-3-(trifluoromethyl)pyrrolidin-3-yl)phenyl)amino)-4,5-dihydro-1H-pyrazolo[4,3-c]pyridin-1-yl)tetrahydro-2H-pyran-4-carbonitrile] was 0.07 nM.
Same read-out and setting: the value for `CC1(C)CC2(c3ccc(Nc4nn([C@H]5COCC[C@@H]5C#N)c5cc[nH]c(=O)c45)cc3)CCC1C(=O)O2` (stereo partly drawn) [Example 1-20, (3R,4S)-3-(3-{[4-(5,5-dimethyl-3-oxo-2-oxabicyclo[2.2.2]oct-1-yl)phenyl]amino}-4-oxo-4,5-dihydro-1H-pyrazolo[4,3-c]pyridin-1-yl)tetrahydro-2H-pyran-4-carbonitrile] was 0.07 nM; that for `CC(C)C(C)(C)S(=O)(=O)c1ccc(Nc2nn([C@H]3COCC[C@@H]3C#N)c3cc[nH]c(=O)c23)cc1` [Example 1-66, (3R,4S)-3-[4-oxo-3-({4-[(1,1,2-trimethylpropyl)sulfonyl]phenyl}amino)-4,5-dihydro-1H-pyrazolo[4,3-c]pyridin-1-yl]tetrahydro-2H-pyran-4-carbonitrile] was 0.07 nM; that for `N#C[C@H]1CCOC[C@@H]1n1nc(Nc2ccc(C(N3CCC3)C(F)(F)F)cc2)c2c(=O)[nH]ccc21` (single isomer, unassigned) [Example 1-56, (3R,4S)-3-[3-({4-[(1R or 1S)-1-azetidin-1-yl-2,2,2-trifluoroethyl]phenyl}amino)-4-oxo-4,5-dihydro-1H-pyrazolo[4,3-c]pyridin-1-yl]tetrahydro-2H-pyran-4-carbonitrile] was 0.06 nM.
`CC(C)(N)c1ccc(Nc2nn([C@H]3COCC[C@@H]3C#N)c3cc[nH]c(=O)c23)cc1` [Example 1-60, (3R,4S)-3-(3-{[4-(1-amino-1-methylethyl)phenyl]amino}-4-oxo-4,5-dihydro-1H-pyrazolo[4,3-c]pyridin-1-yl)tetrahydro-2H-pyran-4-carbonitrile]: on JAK1, the IC50 is 0.21 nM.
In the case of `N#C[C@H]1CCOC[C@@H]1n1nc(Nc2ccc(C(N3CCC3)C(F)(F)F)cc2)c2c(=O)[nH]ccc21` (single isomer, unassigned) [Example 1-57, (3R,4S)-3-[3-({4-[(1S or 1R)-1-azetidin-1-yl-2,2,2-trifluoroethyl]phenyl}amino)-4-oxo-4,5-dihydro-1H-pyrazolo[4,3-c]pyridin-1-yl]tetrahydro-2H-pyran-4-carbonitrile], the IC50 at JAK1 is 0.09 nM.
